This passage reports Kd results from article PMC8197214, “8a, a New Acridine Antiproliferative and Pro-Apoptotic Agent Targeting HDAC1/DNMT1” (International Journal of Molecular Sciences, 2021).

The target in the test is DNMT1 (Homo sapiens, UniProt P26358). Description: biolayer interferometry (Octet K2), His-tagged DNMT1 on NTA biosensor. The class given is binding. (In general: Biolayer interferometry detects binding as a change in optical thickness at a sensor tip.)
Sequence of DNMT1 (P26358 whole entry): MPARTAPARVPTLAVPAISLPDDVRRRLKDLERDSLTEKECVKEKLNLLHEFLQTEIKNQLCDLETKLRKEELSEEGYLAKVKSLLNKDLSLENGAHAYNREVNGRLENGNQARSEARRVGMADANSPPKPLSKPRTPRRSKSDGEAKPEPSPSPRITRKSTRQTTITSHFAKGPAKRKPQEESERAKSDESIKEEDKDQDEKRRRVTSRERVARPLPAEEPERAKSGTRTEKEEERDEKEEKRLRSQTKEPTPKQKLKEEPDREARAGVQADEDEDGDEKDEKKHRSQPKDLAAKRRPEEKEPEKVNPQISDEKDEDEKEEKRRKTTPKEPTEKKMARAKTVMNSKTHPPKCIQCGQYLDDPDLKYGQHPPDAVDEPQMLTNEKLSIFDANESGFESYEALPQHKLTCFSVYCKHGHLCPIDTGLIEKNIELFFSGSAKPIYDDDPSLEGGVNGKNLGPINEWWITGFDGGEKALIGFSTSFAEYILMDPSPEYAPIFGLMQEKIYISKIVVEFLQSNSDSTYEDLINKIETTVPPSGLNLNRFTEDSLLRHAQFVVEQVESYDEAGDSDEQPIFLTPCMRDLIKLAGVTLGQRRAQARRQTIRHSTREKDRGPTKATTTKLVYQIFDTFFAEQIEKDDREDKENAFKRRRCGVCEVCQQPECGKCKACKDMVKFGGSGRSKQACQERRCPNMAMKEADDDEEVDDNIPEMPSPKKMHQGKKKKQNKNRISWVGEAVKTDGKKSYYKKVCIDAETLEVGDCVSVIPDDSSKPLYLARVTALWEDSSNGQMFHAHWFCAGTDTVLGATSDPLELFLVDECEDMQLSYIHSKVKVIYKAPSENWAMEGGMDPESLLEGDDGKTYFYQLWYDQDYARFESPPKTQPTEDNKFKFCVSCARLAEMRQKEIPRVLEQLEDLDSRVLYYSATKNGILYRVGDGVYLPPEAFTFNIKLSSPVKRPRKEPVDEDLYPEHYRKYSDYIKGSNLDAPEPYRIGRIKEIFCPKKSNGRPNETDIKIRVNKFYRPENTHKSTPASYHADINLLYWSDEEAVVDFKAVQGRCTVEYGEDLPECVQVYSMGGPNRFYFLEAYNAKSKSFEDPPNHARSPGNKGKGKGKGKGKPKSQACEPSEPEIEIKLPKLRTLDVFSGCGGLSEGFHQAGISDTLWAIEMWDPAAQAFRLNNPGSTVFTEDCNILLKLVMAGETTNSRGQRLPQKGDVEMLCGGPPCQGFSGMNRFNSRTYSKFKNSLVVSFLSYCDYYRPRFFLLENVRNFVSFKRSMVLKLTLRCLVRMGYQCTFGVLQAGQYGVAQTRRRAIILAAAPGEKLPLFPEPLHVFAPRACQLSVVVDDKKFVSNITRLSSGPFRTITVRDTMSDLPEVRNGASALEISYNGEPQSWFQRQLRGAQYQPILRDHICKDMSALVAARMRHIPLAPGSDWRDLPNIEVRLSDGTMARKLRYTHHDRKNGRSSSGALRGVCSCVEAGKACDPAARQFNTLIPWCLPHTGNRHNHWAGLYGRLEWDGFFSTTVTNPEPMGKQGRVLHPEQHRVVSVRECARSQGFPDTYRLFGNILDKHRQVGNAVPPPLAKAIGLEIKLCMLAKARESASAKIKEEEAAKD

Compound `Cc1cccc2c(NCc3ccc(C(=O)Nc4ccccc4N)cc3)c3ccccc3nc12` [8a, N-(2-aminophenyl)-4-(((4-methylacridin-9-yl)amino)methyl) benzamide] showed a dissociation constant Kd of 1.9 nM.

By Kd is commonly meant the equilibrium constant for the complex coming apart.
